Measurements published in patent US20110098325A1, “PYRIDINE BENZAMIDES AND PYRAZINE BENZAMIDES USED AS PKD INHIBITORS” (CANCER RESEARCH TECHNOLOGY LIMITED, priority 2006, published 2011).

Biological target: T1, Human full length PKD1 (Homo sapiens, UniProt Q15139)
T1 construct: Human full length PKD1 at ˜100 μg/mL purchased from Upstate Ltd; purchased Upstate Ltd 14-508
T1 sequence (Q15139 1-912): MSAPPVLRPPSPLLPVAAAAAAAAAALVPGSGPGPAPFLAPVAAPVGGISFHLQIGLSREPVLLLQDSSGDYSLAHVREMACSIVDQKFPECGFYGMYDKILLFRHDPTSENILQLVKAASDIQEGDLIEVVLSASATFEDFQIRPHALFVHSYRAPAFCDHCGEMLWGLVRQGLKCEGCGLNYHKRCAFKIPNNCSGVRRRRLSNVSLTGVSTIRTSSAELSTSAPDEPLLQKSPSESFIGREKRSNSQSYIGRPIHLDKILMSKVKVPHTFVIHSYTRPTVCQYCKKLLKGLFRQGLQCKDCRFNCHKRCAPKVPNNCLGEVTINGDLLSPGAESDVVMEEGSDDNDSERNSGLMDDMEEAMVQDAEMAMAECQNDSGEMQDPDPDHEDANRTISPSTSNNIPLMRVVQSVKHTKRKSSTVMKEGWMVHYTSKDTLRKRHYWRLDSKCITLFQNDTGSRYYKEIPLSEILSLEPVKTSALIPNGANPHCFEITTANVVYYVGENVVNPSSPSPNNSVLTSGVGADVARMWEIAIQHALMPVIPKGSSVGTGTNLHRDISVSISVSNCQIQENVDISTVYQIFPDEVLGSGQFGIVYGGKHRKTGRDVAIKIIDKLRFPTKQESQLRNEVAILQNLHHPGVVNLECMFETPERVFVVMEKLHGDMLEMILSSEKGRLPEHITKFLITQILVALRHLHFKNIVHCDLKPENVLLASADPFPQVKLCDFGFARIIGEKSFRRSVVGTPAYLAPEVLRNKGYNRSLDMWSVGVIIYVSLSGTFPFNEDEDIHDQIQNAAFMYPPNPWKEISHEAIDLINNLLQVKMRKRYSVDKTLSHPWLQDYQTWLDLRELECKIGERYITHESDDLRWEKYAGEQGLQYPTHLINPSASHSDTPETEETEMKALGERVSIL
Experiment: PKD1 (Human Full Length) Enzyme Activity Assay (IMAP fluorescence polarisation)
Format: biochemical
Settings: 10 μM ATP, 25 minutes, room temperature
Protocol: Kinase Assay Reaction Buffer: This consisted of 0.22 μM filtered 25 mM HEPES and 2 mM MgCl2 pH 7.5.
Kinase Enzyme: Human full length PKD1 at ˜100 μg/mL purchased from Upstate Ltd (Product code 14-508) was obtained from aliquots stored at −70° C. It was prepared with a final concentration of 0.3 μg/mL by diluting 1:300 in Reaction Buffer (30 μL per 9 mL-5 mL per plate with an additional 4 mL dead volume) and vortexing prior to use.
Substrate: Fluorescein labelled glycogen synthase-derived peptide (FI)-KKLNRTLSVA (also known as MAPKAP K2 substrate) was obtained from Molecular Devices (Product code R7127). […]
The fluorescence polarisation of the substrate in each well was recorded using an analyst microplate reader (Molecular Devices) with a single read at Ex485 Em535 (Analyst settings: Z Height 5 mm, G Factor 0.95, Reads/well 1, Integration 100000 μs, Gain Sensitivity 2).
Percentage inhibition was calculated based on activity of the test sample minus the average values in the blank wells relative to the average values measured in control wells minus the average values in the blank wells.
IC50 values were calculated from 10 point dose sigmoid ‘dose-response’ curves using Xlfit software (IDBS inc, USA). […]

Row | IC50 | Structure (SMILES)
1 | 6 nM | COc1cc(-c2cc(-c3cccc(C(=O)NCCN(C)C)c3)cnc2N)ccc1O [Y-059, 3-[6-Amino-5-(4-hydroxy-3-methoxy-phenyl)-pyridin-3-yl]-N-(2-dimethylamino-ethyl)-benzamide]
2 | 4 nM | COc1cc(-c2nc(-c3cccc(C(=O)NCCN(C)C)c3)cnc2N)ccc1O [X-017, 3-[5-Amino-6-(4-hydroxy-3-methoxy-phenyl)-pyrazin-2-yl]-N-(2-dimethylamino-ethyl)-benzamide]
